# From patent US9937182B2, “Therapeutic strategies for the treatment of preeclampsia” (UNIVERSITY OF IOWA RESEARCH FOUNDATION, priority 2013, dated 2018)
# Where “and” joins values, the source holds several entries; their conditions need not be identical. Equal values may be shown once. Entries after “also recorded” stand apart in the source; their conditions may differ.
# Assays:
# abdominal aorta = assay: Abdominal aortic ring vascular reactivity (organ bath); assay type: cell-based, mice; conditions: contractile response
# Protocol: Aortic Vascular Reactivity: Abdominal aortic rings were assessed for vascular reactivity as previously described (32). Briefly, mice were euthanized by overdose of pentobarbital (50 mg, i.p.), and the abdominal aorta was quickly removed and placed in Kreb's buffer containing (in mmol/L): 118.3 NaCl, 4.7 KCl, 1.2 MgSO4, 1.2 KH2PO4, 25 NaHCO3, 2.5 CaCl2 and 11 glucose. Vascular rings (4-5 mm in length) were suspended in oxygenated Kreb's buffer (95% O2/5% CO2) in organ baths at 37° C. and connected to a force transducer via steel hooks. Resting tension was adjusted to 0.5 grams over 45 minutes. Contractile responses were tested in response to AVP (10^−10-10^−6 mol/L), phenylephrine (PE, 10^−8-3×10^−5), endothelin-1 (ET-1, 10^−10-10^−7), prostaglandin F2α (PGF2α, 10^−7-10^−4), and angiotensin II (Ang II, 10^−10-10^−7). Following sub-maximal contraction with PGF2α (40-50% of max; 3×10^−6-6×10^−6), relaxation responses to acetylcholine (10^−8-3×10^−5) and sodium nitroprusside (10^−9-10^−5) were determined.
# (§1) Statistics: Data were analyzed by ANOVA with repeated measures as appropriate. Post-hoc analyses were performed using Bonferroni multiple-comparisons procedures. EC50 and maximum response calculations were performed by fitting individual dose-response data sets to a four-parameter logistic function (Hillslope method); y=min+([…])/(1+(x/EC50)^Hillslope). All mRNA fold changes were calculated using the Livak method (54). All analytical comparisons were performed using SigmaStat/SigmaPlot (Systat). All data are presented as mean±sem.
# [1] = test system: 2°-branch mesenteric artery; assay: Mesenteric artery vascular reactivity (pressurized myography); assay type: cell-based, mice
# Protocol: Mesenteric Artery Vascular Reactivity: Secondary branches of mesenteric artery were dissected and placed in chilled oxygenated (21% O2, 5% CO2, and 74% N2) Kreb's buffer. A segment (˜1 mm long) of artery was transferred to a vessel chamber (DMT), cannulated with glass micropipettes and secured with silk ligatures. The artery was slowly pressurized to 40 mmHg without flow. After 30 min equilibration, vessel viability was tested by constriction response to 100 mM KCl. Vascular responses to PE (10-9-10-5 mol/L), AVP (10-12-10-7 mol/L), and ET-1 (10-11-10-8 mol/L) were then assessed. The artery was then superfused with calcium-free Krebs buffer containing 10-5 mol/L sodium nitroprusside and 2 mmol/L EGTA to maximally dilate the vessel. Internal and external diameters were measured at 75 mm Hg. Wall thickness, media/lumen ratio and cross sectional area (CSA) were calculated as previously described by Neves, et al. (62).
# as §1
# C57Bl/6J mice = assay: Vasopressin infusion (240 ng/hr) during pregnancy, preeclampsia-like phenotypes; assay type: in vivo
# Protocol: Animal Studies: Female C57Bl/6J mice were obtained from Jackson Laboratories between 8-12 weeks of age. Osmotic minipumps infusing vasopressin (240 ng/hr) or saline vehicle were inserted into the subcutaneous space via incision between the scapulae. Following three days of recovery, females were mated with male C57Bl/6J mice. Presence of a vaginal plug indicated gestational day 0.5. Blood pressure was tracked before mating and throughout gestation by tail-cuff plethysmography. On gestational day 18, females were sacrificed for necropsy. Pup weight was recorded. Dam kidney sections were generated and imaged by electron microscopy by the University of Iowa Department of Pathology. All studies were approved by the University of Iowa Animal Care and Use Committee (ACURF #1211239).
# [2] = test system: wildtype female mice (C57Bl/6 background); assay: Vasopressin infusion (24 ng/hr) throughout pregnancy, fetal and placental masses and resorption at GD18; assay type: in vivo; conditions: for Raw fetal mass (Fetus): individual fetuses; for Raw placental mass (Placenta): individual placentas
# Protocol: Methods: Nine adult wildtype female mice were obtained from in-house breeding colonies that are based on the C57Bl/6 background strain. Three days before breeding, females were implanted with subcutaneous osmotic minipumps (Alzet) to continuously deliver arginine vasopressin (AVP, Sigma-Aldrich) at 24 ng/hr. Females were mated for two consecutive nights with wildtype male C57BL/6J males purchased from Jackson Laboratories. GD1 was defined based upon the presence of a vaginal sperm plug. On gestational day 18, female mice were sacrificed by CO2 asphyxiation, and fetuses and fetoplacental units were isolated by blunt dissection.
# C57Bl/6J female mice = assay: Vasopressin infusion 0.24, 2.4 or 24 ng/hr during pregnancy, proteinuria and intrauterine growth restriction; assay type: in vivo; conditions: for fetal masses: dams infused with 24 ng/hr compared to 2.4 ng/hr vasopressin; for urine protein content: pregnant mice, GD17-GD18, vasopressin 0.24, 2.4, 24 ng/hr
# Protocol: Method: Eighteen female C57BL/6J mice were obtained from the Jackson Laboratories. Subcutaneous osmotic minipumps (Alzet) were implanted to deliver vasopressin at 0.24, 2.4, or 24 ng/hr (six mice each group). After three days, mice were mated with wildtype C57BL/6J male mice for one night (thereby defining gestational day zero). On GD16, mice were placed into single-mouse metabolic cages (Nalgene) to collect urine for two consecutive nights. On GD18, mice were sacrificed to quantify and collect fetuses and placentas. Urine protein was assessed by commercially-available BCA assay (Pierce).
# [3] = vasopressin 240 ng/hr sc infusion vs saline
# [4] = all six pregnancies, vasopressin 24 ng/hr, GD18
# [5] = average of dam 200245-2 (HD4), vasopressin 24 ng/hr, GD18
# [6] = average of dam 200245-4 (HD5), vasopressin 24 ng/hr, GD18
# [7] = average of dam 200301-2 (HD2), vasopressin 24 ng/hr, GD18
# [8] = average of dam 200301-4 (HD3), vasopressin 24 ng/hr, GD18
# [9] = average of dam 200357-1 (HD6), vasopressin 24 ng/hr, GD18
# [10] = average of dam 200372-3 (HD9), vasopressin 24 ng/hr, GD18
# [11] = dam 200245-2 (HD4), vasopressin 24 ng/hr, GD18
# [12] = dam 200245-4 (HD5), vasopressin 24 ng/hr, GD18
# [13] = dam 200301-2 (HD2), vasopressin 24 ng/hr, GD18
# [14] = dam 200301-4 (HD3), vasopressin 24 ng/hr, GD18
# [15] = dam 200357-1 (HD6), vasopressin 24 ng/hr, GD18
# [16] = dam 200372-3 (HD9), vasopressin 24 ng/hr, GD18
smiles,measurement,setting,value
NC(=O)CC[C@@H]1NC(=O)[C@H](Cc2ccccc2)NC(=O)[C@H](Cc2ccc(O)cc2)NC(=O)[C@@H](N)CSSC[C@@H](C(=O)N2CCC[C@H]2C(=O)N[C@@H](CCCN=C(N)N)C(=O)NCC(N)=O)NC(=O)[C@H](CC(N)=O)NC1=O [Arginine vasopressin],Maximum Response,abdominal aorta; male Control mice,0.29 ± 0.03 g
same,Maximum Response,abdominal aorta; male sRA mice,0.12 ± 0.01 g
same,Maximum Response,[1]; male Control mice,52.5 ± 3.2%
same,Maximum Response,[1]; male sRA mice,17.3 ± 6.5 %
same,proteinuria,C57Bl/6J mice; [3],apparent proteinuria
same,rate of pregnancy (fecundity),C57Bl/6J mice; [3],significantly reduced the rate of pregnancy; also recorded: significantly reduced fecundity
same,renal cortex electron microscopy,C57Bl/6J mice; [3],pathognomic glomerular endotheliosis
same,blood pressure in pregnancy,"C57Bl/6J mice; vasopressin 240 ng/hr sc infusion vs saline, tail-cuff",robust increase in blood pressure; also recorded: appears to induce hypertension
same,fetal growth,"C57Bl/6J mice; vasopressin 240 ng/hr sc infusion, gestational day 18",substantial fetal growth restriction
same,"Avg mass, Fetus",[2]; [4],0.4929 g
same,"Avg mass, Placenta",[2]; [4],0.0628 g
same,"Resorb, total count",[2]; [4],10
same,resorbed fetoplacental units,[2]; [4],17%
same,"Avg mass, Fetus",[2]; [5],0.7741 g
same,"Avg mass, Placenta",[2]; [5],0.0536 g
same,"Avg mass, Fetus",[2]; [6],0.0371 g
same,"Avg mass, Placenta",[2]; [6],0.0388 g
same,"Avg mass, Fetus",[2]; [7],0.3741 g
same,"Avg mass, Placenta",[2]; [7],0.0760 g
same,"Avg mass, Fetus",[2]; [8],0.3054 g
same,"Avg mass, Placenta",[2]; [8],0.0672 g
same,"Avg mass, Fetus",[2]; [9],0.4660 g
same,"Avg mass, Placenta",[2]; [9],0.0545 g
same,"Avg mass, Fetus",[2]; [10],1.0077 g
same,"Avg mass, Placenta",[2]; [10],0.0761 g
same,Raw fetal mass (Fetus),[2]; [11],0.7964 g and 0.5962 g and 0.8258 g and 0.8183 g and 0.8336 g
same,Raw fetal mass (Fetus),[2]; [12],0.0154 g and 0.0699 g and 0.0261 g
same,Raw fetal mass (Fetus),[2]; [13],0.3756 g and 0.3352 g and 0.3805 g and 0.3954 g and 0.3094 g and 0.3777 g and 0.4078 g and 0.3880 g and 0.3971 g
same,Raw fetal mass (Fetus),[2]; [14],0.2866 g and 0.2599 g and 0.3328 g and 0.3609 g and 0.3085 g and 0.3087 g and 0.2955 g and 0.3356 g and 0.3129 g and 0.3034 g and 0.3086 g and 0.2516 g
same,Raw fetal mass (Fetus),[2]; [15],0.4865 g and 0.4962 g (2×) and 0.4780 g and 0.4092 g and 0.4543 g and 0.5241 g and 0.4999 g and 0.4399 g and 0.4501 g and 0.5057 g and 0.3521 g
same,Raw fetal mass (Fetus),[2]; [16],0.9287 g and 1.0395 g and 1.1359 g and 1.0723 g and 1.0064 g and 0.9679 g and 0.9034 g
same,Raw placental mass (Placenta),[2]; [11],0.0679 g and 0.0629 g and 0.0860 g and 0.0898 g and 0.0770 g and 0.0070 g and 0.0157 g and 0.0324 g and 0.0433 g
same,Raw placental mass (Placenta),[2]; [12],0.0494 g and 0.0410 g and 0.0261 g and <0.01 g (5×)
same,Raw placental mass (Placenta),[2]; [13],0.0687 g and 0.0810 g and 0.0828 g and 0.0796 g and 0.0638 g and 0.0840 g and 0.0936 g and 0.0477 g and 0.0827 g
same,Raw placental mass (Placenta),[2]; [14],0.0315 g and 0.0762 g and 0.0747 g and 0.0876 g and 0.0710 g and 0.0789 g and 0.0620 g and 0.0687 g and 0.0669 g and 0.0714 g and 0.0640 g and 0.0529 g
same,Raw placental mass (Placenta),[2]; [15],0.0599 g and 0.0709 g and 0.0663 g and 0.0509 g and 0.0480 g and 0.0648 g and 0.0767 g and 0.0678 g and 0.0426 g and 0.0471 g and 0.0569 g and 0.0499 g and 0.0067 g
same,Raw placental mass (Placenta),[2]; [16],0.0725 g and 0.0866 g and 0.0753 g and 0.0810 g and 0.0706 g and 0.0702 g and 0.0766 g
same,fetus mass across all six pregnancies,"[2]; n=48, vasopressin 24 ng/hr, GD18, P<0.0001 against 0.90 gram historical control",0.4929±0.0397 gram/fetus
same,female mice that became pregnant (of nine),"[2]; vasopressin 24 ng/hr, two nights mating",Six
same,mice that became pregnant (of six),C57Bl/6J female mice; 0.24 ng/hr infusion,two
same,mice that became pregnant (of six),C57Bl/6J female mice; 2.4 ng/hr infusion,five
same,mice that became pregnant (of six),C57Bl/6J female mice; 24 ng/hr infusion,three
same,preterm labor,"C57Bl/6J female mice; 24 ng/hr vasopressin infusion group, gestational day 17",one pregnant mouse exhibited preterm labor
same,fetal masses,"C57Bl/6J female mice; GD18, listed as Vasopressin",dose-dependent intrauterine growth restriction
same,fetal masses,"C57Bl/6J female mice; GD18, listed as vasopressin",significantly suppressed
same,urine protein content,C57Bl/6J female mice; listed as Vasopressin,dose-dependent proteinuria
same,urine protein content,C57Bl/6J female mice; listed as vasopressin,elevated in a dose-dependent manner
same,placental masses,"C57Bl/6J female mice; vasopressin 0.24, 2.4, 24 ng/hr, GD18",indistinguishable across treatment groups
